Measured values: PMC5029682, “Discovery and characterization of Isofistularin-3, a marine brominated alkaloid, as a new DNA demethylating agent inducing cell cycle arrest and sensitization to TRAIL in cancer cells” (Oncotarget, 2016)

Legend:
DNMT1 [1] = target: T1, DNMT1 (Homo sapiens, UniProt P26358); test: in vitro DNMT activity/inhibition assay with purified DNMT1, positive control; format: biochemical
DNMT1 [2] = target: T1, DNMT1; test: in vitro DNMT activity/inhibition assay (colorimetric, Active Motif) with purified DNMT1; format: biochemical

T1 sequence (P26358 whole entry): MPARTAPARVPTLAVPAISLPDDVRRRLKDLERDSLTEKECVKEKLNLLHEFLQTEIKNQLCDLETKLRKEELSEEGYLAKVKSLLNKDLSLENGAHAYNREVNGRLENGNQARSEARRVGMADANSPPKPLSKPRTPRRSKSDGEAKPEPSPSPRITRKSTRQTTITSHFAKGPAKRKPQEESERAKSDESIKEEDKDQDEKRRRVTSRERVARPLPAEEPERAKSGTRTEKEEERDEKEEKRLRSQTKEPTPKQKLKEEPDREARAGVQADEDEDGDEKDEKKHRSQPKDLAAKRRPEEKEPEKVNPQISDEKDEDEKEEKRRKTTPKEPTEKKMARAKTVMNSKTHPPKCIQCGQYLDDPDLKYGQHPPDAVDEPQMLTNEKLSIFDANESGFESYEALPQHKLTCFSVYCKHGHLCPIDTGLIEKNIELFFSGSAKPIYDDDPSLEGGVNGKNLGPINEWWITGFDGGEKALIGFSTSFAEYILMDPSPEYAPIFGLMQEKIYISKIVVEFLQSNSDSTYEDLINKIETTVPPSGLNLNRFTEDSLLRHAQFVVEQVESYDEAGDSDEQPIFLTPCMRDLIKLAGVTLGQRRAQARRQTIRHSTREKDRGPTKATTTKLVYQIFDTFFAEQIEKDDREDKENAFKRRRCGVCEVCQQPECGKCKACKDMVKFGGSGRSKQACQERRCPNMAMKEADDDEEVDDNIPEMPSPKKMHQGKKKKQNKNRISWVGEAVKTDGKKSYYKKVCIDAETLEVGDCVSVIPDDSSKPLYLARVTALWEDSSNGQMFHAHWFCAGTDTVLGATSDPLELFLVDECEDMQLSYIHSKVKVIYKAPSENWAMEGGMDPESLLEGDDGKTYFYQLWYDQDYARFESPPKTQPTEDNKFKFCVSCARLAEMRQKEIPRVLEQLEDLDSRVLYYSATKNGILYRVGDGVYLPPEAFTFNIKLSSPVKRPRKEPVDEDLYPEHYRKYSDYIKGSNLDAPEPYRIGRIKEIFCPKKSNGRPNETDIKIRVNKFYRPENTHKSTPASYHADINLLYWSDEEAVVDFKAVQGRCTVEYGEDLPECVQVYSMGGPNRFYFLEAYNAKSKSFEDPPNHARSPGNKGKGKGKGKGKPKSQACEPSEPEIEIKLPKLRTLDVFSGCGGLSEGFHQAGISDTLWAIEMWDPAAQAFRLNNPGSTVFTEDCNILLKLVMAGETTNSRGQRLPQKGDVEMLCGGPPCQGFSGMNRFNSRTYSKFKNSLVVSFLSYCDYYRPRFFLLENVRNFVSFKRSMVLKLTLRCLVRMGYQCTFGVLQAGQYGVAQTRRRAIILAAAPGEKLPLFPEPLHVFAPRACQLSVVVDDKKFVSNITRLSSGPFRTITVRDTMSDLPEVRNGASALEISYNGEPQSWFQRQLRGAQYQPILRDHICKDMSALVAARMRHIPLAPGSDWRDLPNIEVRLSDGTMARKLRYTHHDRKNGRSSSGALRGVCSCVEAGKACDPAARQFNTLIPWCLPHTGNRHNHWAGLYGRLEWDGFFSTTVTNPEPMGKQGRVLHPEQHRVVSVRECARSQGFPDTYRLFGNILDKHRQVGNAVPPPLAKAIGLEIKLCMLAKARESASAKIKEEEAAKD

Row | IC50 (DNMT1 [2]) | Compound | in vitro DNMT activity/inhibition assay with purified DNMT1, positive control (DNMT1 [1])
1 | – | O=C(O[C@@H]1Cc2c(O)cc(O)cc2O[C@@H]1c1cc(O)c(O)c(O)c1)c1cc(O)c(O)c(O)c1 [EGCG, Epigallocatechin gallate] | Green tea polyphenol EGCG was used as a positive control for in vitro DNMT1 inhibition.
2 | 13.5 ± 5.4 µM | COC1=C(Br)[C@H](O)[C@@]2(C=C1Br)CC(C(=O)NCC(O)COc1c(Br)cc(C(O)CNC(=O)C3=NO[C@]4(C=C(Br)C(OC)=C(Br)[C@@H]4O)C3)cc1Br)=NO2 (some centres unmarked) [Iso-3, Isofistularin-3] | –
